# Patent US4812443A, “Methods for enhancing differentiation and proliferation of hematopoietic progenitor cells” (Kuraray Co., Ltd., priority 1984, dated 1989)
# Entries after “also recorded” stand apart in the source; their conditions may differ.
# How the values were obtained:
# extracted atrium = test: Peripheral action, extracted atrium of guinea pigs; design: species or system guinea pig (Hartley-strain); conditions: 10^-6, 10^-5 and 10^-4 g/ml; 30° C.
# Text: (§1) Since the dolichol is a water-insoluble oily liquid, it was used as a solution in sesame oil in the case of oral administration, and as a suspension in a nonionic surfactant (HCO-60, a trade name for a product of Nikko Chemical Co., Ltd.) in the case of intraperitoneal administration and in an in vitro test in the following experiment.
# (§2) In the following experiment, ddY-strain male mice, Wistar-strain male rats (Shizuoka Laboratory Animal Center), Japanese white male rabbits (Carely) and Hartley-strain male guinea pigs (Clea Japan Inc.) were used. The animals were kept under conditions including a temperature of 23±1° C., a humidity of 55±10%, an illuminating time (7:00 am to 9.00 pm) and 15 ventilations per hour. The mice and rats were fed with solid feeds MF (a product of Oriental Yeast Co., Ltd.) and the guinea pigs and rabbits were fed with solid feeds GM-3 and RM-1 (Funabashi Farm Co.). They were allowed to take tap water freely. The animals were preliminarily kept for more than one week, and those which were healthy in general conditions were used in the experiments.
# Hartley-strain male guinea pigs (350-400 g), 3 per group, were used. […] The contraction of the atria was recorded on an ink-writing oscillograph (EMP-3004, Nippon Photoelectric Co.) through an FD pick-up (TB-611T, Nippon Photoelectric Co.). […]
# erythropoiesis = test: Erythropoiesis in vivo, 59Fe incorporation in phenylhydrazine-induced anemic mice (Run 6); design: species or system mouse (BDF1-strain); conditions: 250 mg/kg twice i.p.
# Method: Phenylhydrazine was administered to normal mice and hereditarily anemic mice to induce severe hemolytic anemia. Then, the rate of erythropoiesis during recovering of anemia was determined by measuring the rate of radioactive iron (^59 Fe) incorporation into newly formed red blood cells [P. M. Cotes, D. R. Bangham, Nature (London), 191, 1067 (1961)]. The testing method and results are described below.
# Phenylhydrazine hydrochloride (60 mg/kg) dissolved in normal saline solution was subcutaneously injected into BDF1 -strain mice (6 weeks old, female) three times, namely on the 1st, 2nd and 4th day of the experiment to produce phenylhydrazine-induced anemic mice. Dolichol in a dose of 250 mg/kg (25 mg of dolichol was emulsified in 1 ml of a 1% aqueous solution of sodium carboxymethyl cellulose; 0.2 ml/20 g of the body weight) was intraperitoneally administered to the mice twice, namely on the 1st and 2nd day. […] On the 6th day, 0.5 ml of the whole blood was taken from each mouse, and the radioactivity of ^59 Fe incorporated into the whole blood during the period of 48 hours was measured by an auto-gamma-counter. […] By assuming that the amount of the whole blood of each mouse was 7% of the body weight, the ^59 Fe incorporation rates were calculated in accordance with the following equation and averaged. […]
# corneal reflex = test: Local anesthetic action in guinea pigs (corneal reflex); type: in vivo, guinea pig (Hartley-strain); conditions: up to 0.1%, dropped into the eyes
# Text: as §1, §2
# Hartley-strain male guinea pigs (370-440 g), 3 per group, were used. Dolichol was dropped in a concentration of 0.001%, 0.01% and 0.1%, respectively, into the eyes of the guinea pigs. […]
# blood coagulation system = test: Effect on the blood coagulation system in rats (Quick's one-step method); type: in vivo, rat (Wistar-strain); conditions: 150, 300 and 600 mg/kg; two hours after administration; vs control
# Text: as §1, §2
# Wistar-strain male rats (180-210 g), 6 per group, were used. Two hours after administration of dolichol to rats, the blood was taken from the abdominal main vein of the rats, and the prothrombin time was measured by the Quick's one-step method.
# Water solubility = type: physicochemical
# [1] = system: reserpine-induced blepharoptosis; test: Reserpine antagonistic action in mice; type: in vivo, mouse (ddY-strain); conditions: 150, 300 and 600 mg/kg; reserpine 4 mg/kg i.p.; one hour after administration; vs control
# Text: as §1
# as §2, with “The animals were preliminarily kept for more than one week, and those which were healthy in general conditions were used in the experiments.” left out
# ddY-strain male mice (27-30 g), 6 per group, were used. […] One hour after the administration of dolichol, the degree of blepharoptosis in the mice was observed and recorded in accordance with the Rubin's standards of evaluation (0: normal opening of the eyes, 1: 1/4 blepharoptosis, 2: 1/2 blepharoptosis, 3: 3/4 blepharoptosis, 4: complete blepharoptosis).
# extracted spermiduct = test: Peripheral action, extracted spermiduct of rats; design: species or system rat (Wistar-strain); conditions: up to 10^-4 g/ml, 32° C.
# Text: as §1, §2
# Wistar-strain male rats (180 to 200 g), 3 per group, were used. The extracted spermiduct samples were suspended in Locke-Ringer solution at 32° C. The contraction of the spermiduct was recorded by the same method as in the preceding section. […]
# mice = test: Neuropharmacological test using mice (Irwin's method); type: in vivo, mouse (ddY-strain); conditions: 150, 300 and 600 mg/kg i.p.
# Text: as §1, §2
# ddY-strain male mice, 6 per group, were used, and their changes in behavior, nervous symptoms, autonomic nervous symptoms and toxic symptoms were observed, analyzed and recorded in accordance with the Irwin's method of observation. […]
# [2] = system: maximal electroshock seizure; test: Anticonvulsive action (maximal electroshock seizure) in mice; type: in vivo, mouse (ddY-strain); conditions: 150, 300 and 600 mg/kg; one hour after administration; 40 mA, 0.4 msec, 50 Hz, 0.5 sec; vs control
# Text: as §1, §2
# ddY-male mice (27-30 g), 6 per group, were used. One hour after administration of dolichol to the mice, an electric current was passed through the corneas of the mice under conditions of 40 mA, 0.4 msec, 50 Hz and 0.5 sec, and the time of duration of tonic extension (T. E.) was measured.
substance,measurement,setting,value
dolichol,Chronotropic action,extracted atrium,nor chronotropic action
same,Inotropic action,extracted atrium,no inotropic
same,"59Fe incorporation rate (%), dolichol administered group","erythropoiesis; 48 hours, control group 48.2",50.2%
same,Erythropoiesis enhancing ratio (%),erythropoiesis; percent increase of 59Fe incorporation rate vs control,+4.2%
same,Disappearance of corneal reflex,corneal reflex,no disappearance of corneal reflex
same,Local anesthetic action,corneal reflex,no local anesthetic action was observed
same,Prothrombin time,blood coagulation system,tended to become longer; also recorded: no significant difference was noted
same,Water solubility,Water solubility,water-insoluble
same,Antagonistic action against reserpine-induced blepharoptosis,[1],no antagonistic action
same,Antagonistic action against noradrenalin,extracted spermiduct; extracted spermiduct,nor any antagonistic action
same,Direct action on extracted spermiduct,extracted spermiduct,no direct action
same,"Effect on behaviors, nervous symptoms, autonomic nervous symptoms and toxic symptoms",mice,no effect was observed
same,Time of duration of tonic extension (T. E.),[2],no significant difference was noted
